Values quoted from earlier work as cited in article PMC11573584, “Thanatin and vinyl sulfide analogues as narrow spectrum antimicrobial peptides that synergise with polymyxin B” (Frontiers in Pharmacology, 2024).
Like-named read-outs stand apart in the source and are kept apart here. Marks after values point to notes of the source that are not given here.

How the values were obtained:
[1] = tested on: P. aeruginosa PAO1; conditions: ref Sinha et al. (2022); cited from earlier work
Excerpt: TABLE 2 Minimum Inhibitory Concentrations (MICs) of thanatin* (5) and analogues (8–11) towards a variety of pathogens. | column: Minimum inhibitory concentration (µM) / 1 (Thanatin) ^a

[2] = tested on: S. aureus ATCC 25923; conditions: non-cation adjusted media, ref Sinha et al. (2022), cited from earlier work
Excerpt: TABLE 1 Minimum Inhibitory Concentrations (MICs) of thanatin* (5) and similar analogues against a variety of pathogens. | column: Minimum inhibitory concentration (µM) / Thanatin ^a ^, ^b (1); Minimum inhibitory concentration (µM) / Thanatin M21F ^b (4) || TABLE 2 Minimum Inhibitory Concentrations (MICs) of thanatin* (5) and analogues (8–11) towards a variety of pathogens. | column: Minimum inhibitory concentration (µM) / 1 (Thanatin) ^a

[3] = tested on: E. coli ATCC 25922; conditions: non-cation adjusted media, ref Wu et al. (2013); cited from earlier work
Excerpt: TABLE 1 Minimum Inhibitory Concentrations (MICs) of thanatin* (5) and similar analogues against a variety of pathogens. | column: Minimum inhibitory concentration (µM) / Thanatin ^a ^, ^b (1); Minimum inhibitory concentration (µM) / S-Thanatin ^a (3) || TABLE 2 Minimum Inhibitory Concentrations (MICs) of thanatin* (5) and analogues (8–11) towards a variety of pathogens. | column: Minimum inhibitory concentration (µM) / 1 (Thanatin) ^a

[4] = tested on: P. aeruginosa ATCC 27853; conditions: non-cation adjusted media, ref Sinha et al. (2022); cited from earlier work
Excerpt: (§1) TABLE 1 Minimum Inhibitory Concentrations (MICs) of thanatin* (5) and similar analogues against a variety of pathogens. | column: Minimum inhibitory concentration (µM) / Thanatin ^a ^, ^b (1); Minimum inhibitory concentration (µM) / Thanatin M21F ^b (4)

[5] = tested on: E. coli BL21; conditions: non-cation adjusted media, ref Sinha et al. (2022); cited from earlier work
Excerpt: as §1

| Substance | Minimum inhibitory concentration (MIC) [1] [µM] | Minimum inhibitory concentration (MIC) ([2]; listed as 1 (Thanatin)) [µM] | Minimum inhibitory concentration (MIC) [2] | Minimum inhibitory concentration (MIC) [3] | Minimum inhibitory concentration (MIC) [4] | Minimum inhibitory concentration (MIC) [5] |
| --- | --- | --- | --- | --- | --- | --- |
| Thanatin [Thanatin (1)] | 2 | 8 | 8 ^b µM | 3.2 ^a µM | 1 ^b µM | 0.5 ^b µM |
| thanatin M21F [Thanatin M21F (4)] | – | – | 0.5 µM | – | 0.5 µM | 0.5 µM |
